Measured values: PubChem BioAssay AID179 (DTP/NCI, 2004)
Activity calls are given as the source filed them.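 How the source made its calls: active means compounds giving half or more protection of infected cells from virus-caused growth loss, again on retest; inactive means the rest.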 Where a SMILES comes first, the peptide text is derived from it. The star is where a group is joined. Cbz = O=C(OCc1ccccc1)*; Boc = CC(C)(C)OC(=O)*; tBu = CC(C)(C)*

Test system: CEM cells HIV-1 protection, formazan growth assay
Assay: NCI AIDS Antiviral Assay
Conditions: for IC50: measured here: growth of uninfected CEM cells
Method in brief: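 Five concentrations of each compound were applied to infected and uninfected human CEM cells. Protection from HIV-1 was judged from growth measured with a soluble formazan assay.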

## CC(=O)Nc1ccc(OC2=CCN(C)CC2)cc1
  EC50: > 200 µM
  IC50: > 200 µM

## COc1ccc(-c2nc3sc(-c4ccc(OC)c(OC)c4)nc3s2)cc1OC
  EC50: > 200 µM
  IC50: > 200 µM

## O=C1CC(c2ccsc2)NC(=O)N1CCCl (configuration not stated)
  EC50: > 200 µM
  IC50: > 200 µM

## O=NNc1cnccn1
  EC50: > 1700 µM
  IC50: > 1700 µM

## Cc1nc2cccc(F)c2c(=O)n1-c1nnc(C(F)(F)F)s1
  EC50: > 200 µM
  IC50: 4.47 µM

## O=Cc1ccc(-c2ccc(-c3ccc(C=O)s3)o2)s1
  outcome: inactive

## COC1(OC)CC2C=C(S(=O)(=O)c3ccccc3)C1N(Cc1ccccc1)C2=O (configuration not stated)
  outcome: inactive

## CNc1nnc(CCCCCCCCc2nnc(NC)o2)o1
  EC50: > 200 µM
  IC50: 11.5 µM

## CCO[C@H]1OC(=O)[C@@H]2C(c3ccc(F)cc3)=NO[C@H]12
  EC50: > 135 µM
  IC50: > 135 µM

## Oc1ccc2c(c1)c1c(n2CCN2CCOCC2)-c2ccccc2CC1
  EC50: > 200 µM
  IC50: 30.2 µM

## COC(=O)C12CCC(C(F)(F)C1=O)C2(C)C (configuration not stated)
  EC50: > 200 µM
  IC50: > 200 µM

## Nc1nc(N)c(-c2cccc(C(F)(F)F)c2)c(Cc2cccc(C(F)(F)F)c2)n1
  EC50: > 20 µM
  IC50: 0.759 µM

## COC(=O)/C(=N\NC(N)=O)C(C(=O)C(=O)Nc1ccccc1OC)c1nc2ccc([N+](=O)[O-])cc2[nH]c1=O (configuration not stated)
  EC50: > 479 µM
  IC50: 229 µM

## C=CC[C@@]1(OC(C)=O)C(=O)C(=O)OC1C1COC(C)(C)O1 (some centres not stated)
  EC50: > 200 µM
  IC50: 11.2 µM

## N#Cc1nc(CN2C(=O)c3ccccc3C2=O)oc1N
  EC50: 5.89 µM
  IC50: > 200 µM

## O=C1NS(=O)(=O)NC1(c1ccccc1)c1ccccc1
  outcome: inactive

## CCC(C)C(NC(=O)C(CCCN=C(N)N)NC(=O)C(CC(=O)O)NC(=O)C(Cc1cnc[nH]1)NC(=O)C(N)CC(C)C)C(=O)NC(C(=O)NC(CC(C)C)C(=O)NCC(=O)NC(CC(=O)O)C(=O)O)C(C)CC (configuration not stated) (H-LHDRIILGD-OH; configuration not given here)
  EC50: > 58.9 µM
  IC50: > 58.9 µM

## C[C@@H](CN1CC(=O)NC(=O)C1)N1CC(=O)NC(=O)C1
  EC50: > 933 µM
  IC50: 91.2 µM

## COc1ccc2[nH]c3c(C)c4ccnc(NCCCN(C)CCCN)c4c(C)c3c2c1
  EC50: > 1 µM
  IC50: 0.38 µM

## Clc1ccccc1C=NCC1CCC(CN=Cc2ccccc2Cl)CC1 (configuration not stated)
  EC50: > 200 µM
  IC50: 9.12 µM

## Cc1ccc(NC(=O)C2C(=O)N(c3ccc(C)cc3)C(=O)/C2=N\NC(N)=S)cc1 (configuration not stated)
  EC50: > 12.6 µM
  IC50: > 12.6 µM

## Nc1cc(OCc2ccccc2)c(OCc2ccccc2)cc1C=O
  EC50: > 200 µM
  IC50: 18.6 µM

## CC(=O)O[C@H]1CC[C@@]2(C)C(=CC[C@H]3C(CC#N)[C@@](C)(C#N)CCC32)C1 (some centres not stated)
  outcome: inactive

## CO[C@]12CCC(=O)N1C=Cc1c2[nH]c2ccccc12
  outcome: inactive

## N#C/C(=C\c1ccc2ccccc2c1)c1ccccc1
  EC50: > 14.8 µM
  IC50: > 14.8 µM

## O=C(CC1=NC2NN(c3ccccc3)C(=O)C2=C1CC(=O)c1cccc([N+](=O)[O-])c1)c1cccc([N+](=O)[O-])c1 (configuration not stated)
  EC50: > 129 µM
  IC50: > 129 µM

## CN(C)c1ccc(C=Nc2ccc(/C=C3\C=Cc4ccccc43)cc2)cc1
  EC50: > 20.4 µM
  IC50: > 20.4 µM

## Fc1ccc(C=NC23CC4CC(CC(C4)C2)C3)cc1
  EC50: > 28.2 µM
  IC50: > 28.2 µM

## CC(C)c1cccc(C(C)C)c1NC(=O)C(=O)Cc1nc2ccc([N+](=O)[O-])cc2[nH]c1=O
  EC50: > 490 µM
  IC50: 89.1 µM

## O=C(O)c1ccccc1C(=O)CCC(=O)c1ccccc1C(=O)O
  EC50: > 200 µM
  IC50: > 200 µM

## Cc1ccc(/C=C2\CN(C)CC3C2=NC(=S)NC3c2ccc(C)cc2)cc1 (configuration not stated)
  EC50: > 200 µM
  IC50: 24.5 µM

## NC(N)=N/N=C\c1ccc(C2CCNCC2)cc1
  EC50: > 200 µM
  IC50: > 200 µM

## O=S(=O)(c1ccccc1)C1CN2OC1(S(=O)(=O)c1ccccc1)CC21CCCCC1 (configuration not stated)
  outcome: inactive

## CCNc1cnc2c(n1)c(=O)n(C)c(=O)n2C
  EC50: > 200 µM
  IC50: > 200 µM

## O=c1cc(-c2ccc(O)cc2)oc2cc(O[C@@H]3O[C@H](CO)[C@@H](O)[C@H](O)[C@H]3O)cc(O)c12
  EC50: > 200 µM
  IC50: 4.57 µM

## Cc1c([N+](=O)[O-])ccc2c(NCCCN(C)C)ccnc12
  EC50: > 200 µM
  IC50: 19.1 µM

## CN(C)c1nc(N)nc(Nc2ccc(Br)cc2)c1N=O
  EC50: > 200 µM
  IC50: 37.2 µM

## CC(OC(C)(C)C)C(NC(=O)C(CCCCNC(=O)OC(C)(C)C)NC(=O)C(Cc1c[nH]c2ccccc12)NC(=O)C(Cc1ccccc1)NC(=O)OCc1ccccc1)C(=O)NC(Cc1ccccc1)C(=O)O (configuration not stated) (Cbz-FWK(Boc)T(tBu)F-OH; configuration not given here)
  EC50: > 200 µM
  IC50: 35.5 µM

## COc1cc(N=Nc2ccccc2)ccc1NCS(=O)(=O)O
  EC50: > 200 µM
  IC50: 174 µM

## C=CCC(SC)C1=C(C)C(=O)c2ccccc21 (configuration not stated)
  EC50: > 200 µM
  IC50: 110 µM

## O=C1NC(=O)C2(CCCCC2)N1
  EC50: > 200 µM
  IC50: > 200 µM

## CCOC(=O)CC1CN(Cc2ccccc2)CCC1=O (configuration not stated)
  outcome: inactive

## CC(=O)C(=[N+]=[N-])C(=O)N(C)CCC#N
  EC50: > 200 µM
  IC50: > 200 µM

## Cc1[nH]c2ccccc2c1C(=O)CC1(O)C(=O)Nc2ccccc21 (configuration not stated)
  outcome: inactive

## COc1ccc(C2=Nc3c(nc(OC)[nH]c3=O)NC(c3ccccc3)C2)cc1 (configuration not stated)
  outcome: inactive

## S=C(S)N1CCCCC1
  EC50: > 200 µM

## CC(=O)OCC12C(OC(C)=O)C[C@@H](C)C3(CC(c4ccoc4)OC3=O)C1CCC(OC(C)=O)C21CO1 (some centres not stated)
  EC50: > 200 µM
  IC50: > 200 µM

## COc1ccc(C[C@]23CCC(=O)N2CCc2cc(OC)c(O)cc23)cc1O
  outcome: inactive

## CN(C)C(=O)CC(C(=O)O)c1c[nH]c2ccccc12 (configuration not stated)
  EC50: > 309 µM
  IC50: > 309 µM

## CC(C)(C)C1CCC2(CC1)CCN(CCCN1CCOCC1)CC2
  EC50: > 55 µM
  IC50: 12.3 µM

## CCCCN(CCCC)CC(C(C)=O)C(c1ccccc1)c1c(O)c2ccccc2oc1=O (configuration not stated)
  EC50: > 41.7 µM
  IC50: > 41.7 µM

## Cc1cc(C)c(SSc2nnnn2C)c(C)c1
  EC50: > 200 µM
  IC50: 19.5 µM

## CCC(C)N1CN(c2ccccc2)C2(CCN(CCCC(=O)c3ccc(F)cc3)CC2)C1=O (configuration not stated)
  EC50: > 200 µM
  IC50: 3.55 µM

## Fc1ccc(/C=N\N=C(N/N=C/c2ccc(F)cc2)N/N=C/c2ccc(F)cc2)cc1
  EC50: > 200 µM
  IC50: 19.5 µM

## O=C(/C=C/c1cccc(Cl)c1)c1ccccc1
  EC50: > 11.2 µM
  IC50: > 11.2 µM

## C[C@]12CCCO[C@@H]1CC[C@@H]1[C@@H]2CC[C@]2(C)[C@@H](O)CC[C@@H]12
  EC50: > 200 µM
  IC50: > 200 µM

## COC(=O)C1=C(C(=O)OC)C2(C(=O)OC)OC1(OC)C(C1(C(=O)OC)C(C(=O)OC)=C1C(=O)OC)=C2C(=O)OC (configuration not stated)
  outcome: inactive

## COc1nc(=O)cc(N)n1C1OC(CO)C(O)C1O (configuration not stated)
  EC50: > 912 µM
  IC50: > 912 µM

## C=Cc1cncc(C#N)c1CCc1c(C#N)cncc1C=C
  EC50: > 34.7 µM
  IC50: > 34.7 µM

## CC(O[Si](C)(C)C)C1C=CC(C)n2c(=O)n(-c3ccccc3)c(=O)n21 (configuration not stated)
  outcome: inactive

## NC(Cc1ccc2nc3c4ccccc4c(=O)cc-3oc2c1)C(=O)O (configuration not stated)
  EC50: > 200 µM
  IC50: 34.7 µM

## COc1ccc2c(O)c(S(=O)(=O)c3ccc(C)cc3)c(=O)oc2c1
  EC50: > 200 µM
  IC50: 132 µM

## c1cc(C[S+]2CCCC2)sc1C[S+]1CCCC1
  outcome: inactive
